The target of experiment [1] is arginine vasopressin V2 receptor (Oryctolagus cuniculus, UniProt G1TA00). As to the kind of experiment: V2 receptor binding assay. Further details: species or system rabbit. Particulars: for antagonism on V2 receptor (in words): compared with OPC-31260 and OPC-21268, cf. Table 1.
For another experiment, the system named is V2 receptor. As to the kind of experiment: V2 antagonism (water diuresis) in conscious rats (oral administration). The class given is in vivo, rat. On the procedure:
(4) V2 antagonism (water diuresis) in conscious rats (oral administration)
Each compound to be tested was suspended in 0.5% methylcellulose aqueous solution and orally administered in a dose of 3 mg/kg to male Wister rats (body weight, 270 to 300 g) which had been subjected to fasting with no water for 16 to 20 hours. Using a metabolic cage, urine samples were collected just after the administration of each test sample and until 4 hours after the administration to measure the amount of urine.

Experiment [2] concerns the target T1, arginine vasopressin V1 receptor (Rattus norvegicus, UniProt P30560).
T1 construct: A rat liver membrane sample was prepared; from tissue; host or cells: rat liver membranes
Put plainly: V1 receptor binding assay. Particulars: for antagonism on V1 receptor (in words): compared with OPC-31260 and OPC-21268, cf. Table 1. As for the experimental part:
Usefulness of the compounds of the present invention was confirmed by the following tests. (1) V1 receptor binding assay
A rat liver membrane sample was prepared in accordance with the method of Nakamura et al. (J. Biol. Chem., 258, 9283 (1983)), and [^3 H]-Arg-vasopressin (2 nM, specific activity =75.8 Ci/mmol), 70 μg of the membrane sample and each drug to be tested (10^-8 to 10^-4 M) were incubated at 30° C. for 30 minutes in 250 μl of 100 mM Tris-HCl buffer (pH 8.0) containing 5 mM magnesium chloride, 1mM ethylenediaminetetraacetic acid (EDTA) and 0.1% bovine serum albumin (BSA). Thereafter, the incubation solution was sucked off using a cell harvester and free ligand and excess buffer were removed by passing the reaction mixture through a glass filter (GF/B), thereby trapping receptor-bound labeled ligand on the glass filter. The glass filter was taken out, thoroughly dried and then mixed with a liquid scintillation cocktail, and the amount of the membrane-bound [^3 H]-vasopressin was measured using a liquid scintillation counter to calculate the inhibition ratio by the following formula. [formula] C1 : amount of [^3 H]-vasopressin bound to the membrane in the coexistence of known amount of each drug to be tested and [^3 H]-vasopressin
C0 : amount of [^3 H]-vasopressin bound to the membrane when the drug to be tested was not added
B1 : amount of [^3 H]-vasopressin bound to the membrane in the presence of excess vasopressin (10^-6 M)
[formula] [L]: concentration of radioactive ligand KD: dissociation constant calculated from Scatchard plot
Negative logarithm of the thus calculated value was used as pKi value.

For a further experiment, the system named is V1 receptor. As to the kind of experiment: V1 antagonism in conscious rats (oral administration). Particulars: 1 mg/kg oral, from 30 minutes to 6 hours after administration, AVP 30 mU/kg i.v. The experiment is classed as in vivo, rat.
Where [3] appears, read: rat liver membrane, [3H]-Arg-vasopressin 2 nM, read-out: Binding activity on arginine vasopressin V1 receptor (pki) (converted).

The results in this text go back to patent US5723606A, “Condensed benzazepine derivative and pharmaceutical composition thereof” (priority 1993, dated 1998).

Structures can show the parent of a compound that is named as a salt. Where two headings read alike, the source gives them in different places.

arginine vasopressin V2 receptor, sequence (G1TA00 78-446): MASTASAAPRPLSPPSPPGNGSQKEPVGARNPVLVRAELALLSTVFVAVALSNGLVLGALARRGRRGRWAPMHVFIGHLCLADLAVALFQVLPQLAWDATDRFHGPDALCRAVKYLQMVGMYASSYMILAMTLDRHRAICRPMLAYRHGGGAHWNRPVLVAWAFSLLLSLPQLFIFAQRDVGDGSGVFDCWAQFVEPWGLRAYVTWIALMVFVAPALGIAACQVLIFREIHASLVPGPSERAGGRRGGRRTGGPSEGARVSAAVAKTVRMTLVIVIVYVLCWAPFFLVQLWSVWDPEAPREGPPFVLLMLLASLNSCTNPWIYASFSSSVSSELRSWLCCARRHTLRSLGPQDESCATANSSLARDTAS
T1 sequence (P30560 whole entry): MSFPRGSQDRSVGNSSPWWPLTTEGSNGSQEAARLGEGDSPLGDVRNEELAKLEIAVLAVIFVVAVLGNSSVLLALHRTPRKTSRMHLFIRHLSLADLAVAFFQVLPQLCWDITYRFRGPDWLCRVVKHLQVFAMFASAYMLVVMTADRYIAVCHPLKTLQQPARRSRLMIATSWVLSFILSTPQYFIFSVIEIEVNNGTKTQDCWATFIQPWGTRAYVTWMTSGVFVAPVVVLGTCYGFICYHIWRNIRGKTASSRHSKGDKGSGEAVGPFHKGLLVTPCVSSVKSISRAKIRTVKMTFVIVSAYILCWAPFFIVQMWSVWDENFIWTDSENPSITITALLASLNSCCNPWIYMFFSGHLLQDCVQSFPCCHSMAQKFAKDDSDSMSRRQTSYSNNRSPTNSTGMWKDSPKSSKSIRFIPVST

For the compound `Cc1ccccc1C(=O)Nc1ccc(C(=O)N2CCCC(N(C)C)c3ccccc32)cc1` (centres unmarked) [(1), reference compound], in experiment [1] (rabbit renal medulla membrane, [3H]-Arg-vasopressin 2 nM), the “Binding activity on arginine vasopressin V2 receptor (pki)” value amounted to 8.01. Moreover, the “amount of urine relative to the solvent-administered group” value in the experiment with V2 receptor (3 mg/kg oral, from 2 hours to 4 hours after administration, fasted conscious rats) is given as “almost the same as that in the solvent-administered group”; with V2 receptor (po, 3 mg/kg, 2 h), 11 times. The “Binding activity on arginine vasopressin V1 receptor (pki)” value in experiment [2] (rat liver membrane, [3H]-Arg-vasopressin 2 nM) came out at 6.71.

With `Nc1nc2c(s1)CCN(C(=O)c1ccc(NC(=O)c3ccccc3-c3ccccc3)cc1)c1ccccc1-2` [Example 1, 4'-[(2-amino-5,6-dihydro-4H-thiazolo[5,4-d][1]benzazepin-6-yl)carbonyl]-2-phenylbenzanilide hydrobromate], the Ki in experiment [2] (setting [3]) is 4.68 nM.

`N=C(N)Nc1nc2c(s1)CCN(C(=O)c1ccc(NC(=O)c3ccccc3-c3ccccc3)cc1)c1ccccc1-2` [Example 2, 4'-[(2-guanidino-5,6-dihydro-4H-thiazolo[5,4-d][1]benzazepin-6-yl)carbonyl]-2-phenylbenzanilide hydrobromate]: the Ki in experiment [2] (setting [3]) was 1.51 nM.

In the case of `Cc1ccc(-c2ccccc2C(=O)Nc2ccc(C(=O)N3CCc4sc(NC(=N)N)nc4-c4ccccc43)cc2)cc1` [Example 4, 4'-[(2-guanidino-5,6-dihydro-4H-thiazolo[5,4-d][1]benzazepin-6-yl)carbonyl]-2-(4-methylphenyl)benzanilide hydrobromate], the Ki in experiment [2] (setting [3]) is 4.37 nM.

As for `Cc1nc(Cc2nc3c(s2)CCN(C(=O)c2ccc(NC(=O)c4ccccc4-c4ccccc4)cc2)c2ccccc2-3)c[nH]1` [Example 6, 4'-[[2-[4-(2-methylimidazolyl)methyl]-5,6-dihydro-4H-thiazolo[5,4-d][1]benzazepin-6-yl)carbonyl]-2-phenylbenzanilide.2HCl], the Ki in experiment [2] (setting [3]) was 11.2 nM.

In the case of `O=C(Nc1ccc(C(=O)N2CCc3sc(Cc4cccnc4)nc3-c3ccccc32)cc1)c1ccccc1-c1ccccc1` [Example 8, 4'-[[2-(3-pyridylmethyl)-5,6-dihydro-4H-thiazolo[5,4-d][1]benzazepin-6-yl)carbonyl]-2-phenylbenzanilide hydrochloride], the Ki in experiment [2] (setting [3]) is 18.2 nM.

Consider `CN(C)CCNc1nc2c(s1)CCN(C(=O)c1ccc(NC(=O)c3ccccc3-c3ccccc3)cc1)c1ccccc1-2` [Example 10, 4'-[(2-dimethylaminoethylamino-5,6-dihydro-4H-thiazolo[5,4-d][1]benzazepin-6-yl)carbonyl]-2-phenylbenzanilide.2 HCl], for which, in experiment [2] (setting [3]), the Ki was 2.45 nM.

For the compound `CN(C)CCCc1nc2c(s1)CCN(C(=O)c1ccc(NC(=O)c3ccccc3-c3ccccc3)cc1)c1ccccc1-2` [Example 12, 4'-[[2-(3-dimethylaminopropyl)-5,6-dihydro-4H-thiazolo[5,4-d][1]benzazepin-6-yl)carbonyl]-2-phenylbenzanilide hydrochloride], in experiment [2] (setting [3]), the Ki is 3.02 nM.

`NCCc1nc2c(s1)CCN(C(=O)c1ccc(NC(=O)c3ccccc3-c3ccccc3)cc1)c1ccccc1-2` [Example 15, 4'-[(2-aminoethyl-5,6-dihydro-4H-thiazolo[5,4-d][1]benzazepin-6-yl)carbonyl]-2-phenylbenzanilide hydrochloride] gave a Ki in experiment [2] of 1.23 nM.

With `CC(C)O.Cl.NCC(=O)Nc1nc2c(s1)CCN(C(=O)c1ccc(NC(=O)c3ccccc3-c3ccccc3)cc1)c1ccccc1-2` [Example 17, 4'-[(2-glycylamino-5,6-dihydro-4H-thiazolo[5,4-d][1]benzazepin-6-yl)carbonyl]-2-phenylbenzanilide 2-propylalcohol hydrochloride], in experiment [1], the “antagonism on V2 receptor (in words)” value is reported as “excellent antagonisms”. Moreover, the “antagonism on V1 receptor (in words)” value in experiment [2] is on record as “excellent antagonisms”. The Ki in experiment [2] (setting [3]) is 0.912 nM.

Turning to `Cc1nc2c(o1)-c1ccccc1N(C(=O)c1ccc(NC(=O)c3ccccc3-c3ccccc3)cc1)CC2` [Example 18(1), 4'-[(2-Methyl-5,6-dihydro-4H-oxazolo[4,5-d][1]benzazepin-6-yl)carbonyl]-2-phenylbenzanilide], the Ki in experiment [2] (setting [3]) is 4.27 nM.

As for `Cc1nc2c([nH]1)-c1ccccc1N(C(=O)c1ccc(NC(=O)c3ccccc3-c3ccccc3)cc1)CC2.Cl` [Example 18(2), 4'-[(2-methyl-1,4,5,6-tetrahydroimidazo[4,5-d][1]benzazepin-6-yl)carbonyl]-2-phenylbenzanilide hydrochloride], the “antagonism on V2 receptor (in words)” value in experiment [1] is recorded as “excellent antagonisms”. The “Pressure increase by AVP (diastolic blood pressure, pre-dose increase = 100%)” value in the experiment with V1 receptor is ≤ 50%. Also, the “amount of urine relative to the solvent-administered group” value with V2 receptor (po, 3 mg/kg) is recorded as 8-10 times; in the experiment with V2 receptor (po, 3 mg/kg, 2 h) it was 47-95 times. For the same compound, the Ki in experiment [2] was 0.891 nM. For the same compound, the “antagonism on V1 receptor (in words)” value in experiment [2] is reported as “excellent antagonisms”.

Take `CCc1nc2c([nH]1)-c1ccccc1N(C(=O)c1ccc(NC(=O)c3ccccc3-c3ccccc3)cc1)CC2.Cl` [Example 20, 4'-[(2-ethyl-1,4,5,6-tetrahydroimidazo[4,5-d][1]benzazepin-6-yl)carbonyl]-2-phenylbenzanilide hydrochloride]: the “antagonism on V2 receptor (in words)” value in experiment [1] is reported as “excellent antagonisms”. Moreover, the “amount of urine relative to the solvent-administered group” value in the experiment on V2 receptor (po, 3 mg/kg) is listed as 8-10 times; in the experiment with V2 receptor (po, 3 mg/kg, 2 h), 47-95 times. Moreover, the “antagonism on V1 receptor (in words)” value in experiment [2] is on record as “excellent antagonisms”. The Ki in experiment [2] (setting [3]) is 0.661 nM.

For the compound `CCCc1nc2c([nH]1)-c1ccccc1N(C(=O)c1ccc(NC(=O)c3ccccc3-c3ccccc3)cc1)CC2.Cl` [Example 21, 4'-[(2-propyl-1,4,5,6-tetrahydroimidazo[4,5-d][1]benzazepin-6-yl)carbonyl]-2-phenylbenzanilide hydrochloride], the “antagonism on V2 receptor (in words)” value in experiment [1] was “excellent antagonisms”. Moreover, the “Pressure increase by AVP (diastolic blood pressure, pre-dose increase = 100%)” value in the experiment with V1 receptor was ≤ 50%. Also, the “amount of urine relative to the solvent-administered group” value in the experiment with V2 receptor (po, 3 mg/kg) is listed as 8-10 times; in the experiment with V2 receptor (po, 3 mg/kg, 2 h) it was 47-95 times. Further, the “antagonism on V1 receptor (in words)” value in experiment [2] is “excellent antagonisms”. Besides, in experiment [2] (setting [3]), the Ki was 1.82 nM.

Consider `Cl.O=C(Nc1ccc(C(=O)N2CCc3nc(C4CC4)[nH]c3-c3ccccc32)cc1)c1ccccc1-c1ccccc1` [Example 23, 4'-[(2-cyclopropyl-1,4,5,6-tetrahydroimidazo[4,5-d][1]benzazepin-6-yl)carbonyl]-2-phenylbenzanilide hydrochloride], for which, in experiment [1], the “antagonism on V2 receptor (in words)” value is “excellent antagonisms”. Further, the “Pressure increase by AVP (diastolic blood pressure, pre-dose increase = 100%)” value in the experiment with V1 receptor is given as ≤ 50%. Also, the “amount of urine relative to the solvent-administered group” value was 8-10 times with V2 receptor (po, 3 mg/kg) and 47-95 times in the experiment on V2 receptor (po, 3 mg/kg, 2 h). Besides, in experiment [2], the “antagonism on V1 receptor (in words)” value is reported as “excellent antagonisms”.

For the compound `Cc1nc2c([nH]1)-c1ccccc1N(C(=O)c1ccc(NC(=O)c3ccccc3C)cc1)CC2` [Example 24, 2-methyl-4'-[(2-methyl-1,4,5,6-tetrahydroimidazo[4,5-d][1]benzazepin-6-yl)carbonyl]benzanilide hydrochloride], the Ki in experiment [2] (setting [3]) is 17 nM.

For the compound `Cc1nc2c([nH]1)-c1ccccc1N(C(=O)c1ccc(NC(=O)c3ccccc3OC(C)C)cc1)CC2` [Example 27, 2-isopropoxy-4'-[(2-methyl-1,4,5,6-tetrahydroimidazo[4,5-d][1]benzazepin-6-yl)carbonyl]benzanilide hydrochloride], the Ki in experiment [2] (setting [3]) was 6.17 nM.

`NCCCCc1nc2c([nH]1)-c1ccccc1N(C(=O)c1ccc(NC(=O)c3ccccc3-c3ccccc3)cc1)CC2` [Example 37, 4'-[[2-(4-aminobutyl)-1,4,5,6-tetrahydroimidazo[4,5-d][1]benzazepin-6-yl]carbonyl]-2-phenylbenzanilide.2 HCl]: the “antagonism on V2 receptor (in words)” value in experiment [1] is “excellent antagonisms”. In experiment [2], the “antagonism on V1 receptor (in words)” value is “excellent antagonisms”. Also, the Ki in experiment [2] (setting [3]) is 0.324 nM.

`Cc1nc2c([nH]1)-c1ccccc1N(C(=O)c1ccc(NC(=O)C3(c4ccccc4)CCCC3)cc1)CC2` [Example 38, N-[4-[(2-methyl-1,4,5,6-tetrahydroimidazo[4,5-d][1]benzazepin-6-yl)carbonyl]phenylcyclopentanecarboxamido hydrochloride]: the Ki in experiment [2] (setting [3]) is 5.75 nM.
